Source: PubChem BioAssay (NCI)
Several values for one entry are separate records, joined by “and”; a condition that tells them apart may be missing. Identical values can stand only once.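 96-well plates; 48 h exposure; 5 concentrations. Endpoints by linear interpolation between flanking doses. Not reached: highest tested concentration assigned. At the GI50, growth is halved. TGI: total growth inhibition.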

Columns and labels:
Assay in all cases: NCI tumour cell line growth inhibition, 48 h
786-0 renal = tested on: 786-0 renal
HCT-15 colon = tested on: HCT-15 colon
HT29 colon = tested on: HT29 colon
M19-MEL melanoma = tested on: M19-MEL melanoma
NCI-H226 lung = tested on: NCI-H226 lung
OVCAR-4 ovarian = tested on: OVCAR-4 ovarian
SK-MEL-2 melanoma = tested on: SK-MEL-2 melanoma
SN12C renal = tested on: SN12C renal
MCF7 breast = tested on: MCF7 breast
DMS 114 small cell lung = tested on: DMS 114 small cell lung

SMILES	GI50 (786-0 renal)	TGI (786-0 renal)	GI50 (HCT-15 colon)	TGI (HCT-15 colon) [µM]	GI50 (HT29 colon)	TGI (HT29 colon)	GI50 (M19-MEL melanoma) [µM]	TGI (M19-MEL melanoma) [µM]	GI50 (NCI-H226 lung)	TGI (NCI-H226 lung) [µM]	GI50 (OVCAR-4 ovarian)	TGI (OVCAR-4 ovarian)	GI50 (SK-MEL-2 melanoma)	TGI (SK-MEL-2 melanoma)	GI50 (SN12C renal)	TGI (SN12C renal) [µM]	GI50 (MCF7 breast)	TGI (MCF7 breast) [µM]	TGI (DMS 114 small cell lung) [µM]
CCC[CH2][Ge]([CH2]CCC)([CH2]CCC)[O]C(=O)C(OC(C)=O)c1ccccc1 (configuration not stated)	6.34 µM	22.8 µM	1.73 µM	14.5	0.742 µM	13.8 µM	5.13	20.3	0.351 µM	19.7	0.166 µM	20.2 µM	3.17 µM	19.5 µM	7.7 µM	24.9	–	–	–
CCCCC/C=C\C/C=C/CCCCCCCCNC(=O)Nc1ccc([N+](=O)[O-])cc1	29.5 µM	> 100 µM	8.81 µM	> 100	25.1 µM	> 100 µM	–	–	14.8 µM	> 100	13.5 µM	> 100 µM	32.3 µM	> 100 µM	8.12 µM	> 100	23.7 µM	> 100	–
CCOC(=O)/C(=C/c1ccc(Cl)cc1)N(CC)CC	–	> 100 µM	–	> 100	–	> 100 µM	–	> 100	–	> 100	–	> 100 µM	–	> 100 µM	–	> 100	–	–	–
COc1cccc2cc(-c3nc(C4CCC(C(=O)O)CC4)n4ncnc(N)c34)[nH]c12 (configuration not stated)	0.344 µM and 0.488 µM	6.57 µM and 5.44 µM	0.558 µM and 0.973 µM	> 100	1.2 µM and 2.52 µM	79.9 µM and > 10 µM	–	–	0.347 µM and 0.397 µM	> 7.79	0.155 µM and 0.288 µM	2 µM and 3.28 µM	0.108 µM and 0.347 µM	0.633 µM and 2.23 µM	0.203 µM and 0.413 µM	> 100	0.155 µM and 0.22 µM	> 35.7	–
O=C(NCc1cccs1)OC1CC2CCC1C2 (configuration not stated)	–	> 100 µM	–	> 100	–	> 100 µM	–	–	–	> 100	–	> 100 µM	–	> 100 µM	–	> 100	–	> 100	–
Cc1ccc2nc(CC(=O)c3ccc4ccccc4c3)c(=O)[nH]c2c1	–	> 100 µM	–	> 100	–	> 100 µM	–	–	–	> 100	–	> 100 µM	–	> 100 µM	–	> 100	–	> 100	–
N#CC(C(=O)C(=O)Nc1ccc(Cl)c(Cl)c1)c1ccc(Cl)cc1 (configuration not stated)	–	> 100 µM	–	> 100	–	> 100 µM	–	–	–	> 100	–	–	–	> 100 µM	–	> 100	–	–	45.7
Cc1[nH]c2ccccc2c1C1=CC(=O)C=CC1=O	20.1 µM	43.3 µM	10.9 µM	27.1	13.6 µM	40.1 µM	–	–	15.6 µM	30.9	4.2 µM	15.3 µM	12.3 µM	28.9 µM	14.4 µM	32	9.9 µM	28.8	–
COC(=O)c1cc(NC(=O)CN(CCN(CC(=O)O)CC(=O)Nc2ccc(O)c(C(=O)OC)c2)CC(=O)O)ccc1O	35.2 µM	> 100 µM	> 100 µM	> 100	> 100 µM	> 100 µM	–	–	> 100 µM	> 100	> 100 µM	> 100 µM	> 100 µM	> 100 µM	63.8 µM	> 100	33.5 µM	> 100	–
Cc1cccc2c1ccc1c3occ(C)c3c(=O)oc21	> 100 µM	> 100 µM	> 100 µM	> 100	> 100 µM	> 100 µM	–	–	> 100 µM	> 100	> 100 µM	> 100 µM	> 100 µM	> 100 µM	> 100 µM	> 100	23.4 µM	> 100	–
CC#CC(=O)N[C@H]1CCCN(c2c(F)cc(C(N)=O)c3[nH]c(C)c(C)c23)C1	19 µM	56.6 µM	15.9 µM	32.9	25 µM	72.3 µM	–	–	21.1 µM	51.6	22.5 µM	81.3 µM	16.4 µM	35.7 µM	20.4 µM	58.2	17.3 µM	36	–
CC(=O)Nc1ccc(S(=O)(=O)c2ccc(NC(C)=O)cc2)cc1	> 100 µM	> 100 µM	> 100 µM	> 100	> 100 µM	> 100 µM	–	–	> 100 µM	> 100	> 100 µM	> 100 µM	> 100 µM	> 100 µM	> 100 µM	> 100	> 100 µM	> 100	–
O=[N+]([O-])c1ccc(NN=C2c3ccccc3Cc3ccccc32)c([N+](=O)[O-])c1	–	> 100 µM	–	> 100	–	22.2 µM	–	–	–	> 100	–	> 100 µM	–	> 43.4 µM	–	> 100	–	> 100	–
CN1CCc2cc(O)c3cc2C1Cc1ccc(cc1)Oc1cc(ccc1O)CC1c2c(cc4c(c2O3)OCO4)CCN1C (configuration not stated)	–	> 100 µM	–	60	–	74.4 µM	–	–	–	47.7	–	88.6 µM	–	34.2 µM	–	> 100	–	–	39.4
Cc1cccc2c1NC(=O)C2(c1ccc(O)cc1)c1ccc(O)cc1	17.9 µM	40.1 µM	0.53 µM	> 100	15.7 µM	46.5 µM	–	–	18 µM	59	< 0.01 µM	< 0.0174 µM	15.7 µM	37.8 µM	< 0.01 µM	15.4	0.0219 µM	> 59.6	–
CCCC(=O)Nc1ncnc2c1ncn2C1OC2COP(=O)(O)OC2C1OC(=O)CCC (configuration not stated)	> 1000 µM	> 1000 µM	> 1000 µM	> 1000	> 1000 µM	> 1000 µM	–	–	> 1000 µM	> 1000	> 1000 µM	> 1000 µM	> 1000 µM	> 1000 µM	> 1000 µM	> 1000	> 1000 µM	> 1000	–
CNc1ccc(C(=O)CC(O)CCC(C)C2OC(=O)CC(O)CC(=O)CC(O)CC(O)CC(O)CC(O)CC3(O)CC(O)C(C(=O)NCCc4ccccn4)C(CC(OC4OC(C)C(O)C(N)C4O)/C=C/C=C/C=C/C=C\C=C/C=C/C=C/C2C)O3)cc1 (configuration not stated)	0.118 µM	0.361 µM	4.75 µM	> 50	2.65 µM	> 50 µM	–	–	2.29 µM	9.71	0.868 µM	> 50 µM	–	> 50 µM	0.961 µM	2.09	1.25 µM	10.4	–
